In article PMC8237258 (Journal of Medicinal Chemistry, 2021):
“And” between values parts separate entries of the source, which are not always exact repeats. Identical values can stand only once. Where a SMILES comes first, the peptide text is derived from it. Bridges are numbered along the chain shown (N, C = ends). [ ]: non-standard residue; d: D form.

Experiments:
GC-C receptor = GC-C receptor (Homo sapiens, UniProt P25092); experiment: cell-based
in vitro [1] = conditions: simulated gi fluid, pH 1.3
in vitro [2] = conditions: pig, simulated gi fluid, pH 6.8
[3] = biological target: guanylate cyclase-C (human (endogenous in T84)) (UniProt P25092)
Sequence of guanylate cyclase-C (human (endogenous in T84)) (P25092 24-1073): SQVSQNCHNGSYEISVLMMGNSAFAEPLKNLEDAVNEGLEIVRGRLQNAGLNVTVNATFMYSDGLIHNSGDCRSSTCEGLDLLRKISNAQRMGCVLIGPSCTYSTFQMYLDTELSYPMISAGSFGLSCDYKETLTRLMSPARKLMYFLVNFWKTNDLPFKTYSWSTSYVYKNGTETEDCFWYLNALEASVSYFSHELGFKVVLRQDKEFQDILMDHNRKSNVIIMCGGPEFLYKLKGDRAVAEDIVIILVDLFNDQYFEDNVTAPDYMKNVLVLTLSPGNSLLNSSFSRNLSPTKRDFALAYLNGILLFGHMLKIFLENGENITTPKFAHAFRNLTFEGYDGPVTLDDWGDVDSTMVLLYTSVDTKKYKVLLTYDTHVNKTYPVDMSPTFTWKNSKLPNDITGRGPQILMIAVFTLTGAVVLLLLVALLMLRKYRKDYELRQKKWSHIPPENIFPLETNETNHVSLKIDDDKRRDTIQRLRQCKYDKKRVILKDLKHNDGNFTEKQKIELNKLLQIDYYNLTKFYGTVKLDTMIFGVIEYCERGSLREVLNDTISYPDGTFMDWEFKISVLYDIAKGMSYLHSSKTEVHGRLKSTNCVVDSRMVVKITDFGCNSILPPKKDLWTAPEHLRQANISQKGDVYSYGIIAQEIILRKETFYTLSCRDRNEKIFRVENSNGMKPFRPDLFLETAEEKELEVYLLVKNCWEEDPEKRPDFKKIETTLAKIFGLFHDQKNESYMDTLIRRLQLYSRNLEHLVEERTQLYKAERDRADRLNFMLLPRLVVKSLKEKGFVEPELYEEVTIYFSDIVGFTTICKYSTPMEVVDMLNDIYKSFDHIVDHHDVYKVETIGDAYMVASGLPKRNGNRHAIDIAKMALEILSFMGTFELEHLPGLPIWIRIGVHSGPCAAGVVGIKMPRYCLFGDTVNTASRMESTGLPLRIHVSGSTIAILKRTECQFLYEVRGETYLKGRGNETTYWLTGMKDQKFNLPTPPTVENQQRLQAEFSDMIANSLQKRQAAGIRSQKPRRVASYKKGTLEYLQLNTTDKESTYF

[4] = in vivo; cited from earlier work

Sequence of GC-C receptor (P25092 24-1073 limits assumed): as the sequence (P25092 24-1073) above

Row | Compound | EC50 (GC-C receptor) | half-life (in vitro [1]) | half-life (in vitro [2]) | EC50 of cGMP accumulation in human T84 cells (cGMP HTRF assay kit) [3] | other results
1 | CC(C)[C@@H](NC(=O)[C@@H]1CSSC[C@@H]2NC(=O)[C@H](Cc3ccc(O)cc3)NC(=O)[C@H](CCC(=O)O)NC(=O)[C@@H]3CSSC[C@H](NC(=O)[C@H](C)NC(=O)[C@@H]4CCCN4C(=O)[C@H](CC(N)=O)NC(=O)[C@H](CSSC[C@H](N)C(=O)N3)NC2=O)C(=O)N[C@@H]([C@@H](C)O)C(=O)NCC(=O)N1)C(N)=O [[D-Val^14]-Linaclotide] (H-CCEYCCNPACTGC[dV]-NH2; disulfide 1-6, 2-10, 5-13) | 104 ± 21.6 nM | > 8 h | > 8 h | – | EC50/EC50 linaclotide fold (GC-C receptor): 28 fold; fold less potent than [D-Tyr^14]-Linaclotide (GC-C receptor): 6 fold
2 | C[C@@H]1NC(=O)[C@@H]2CCCN2C(=O)[C@H](CC(N)=O)NC(=O)[C@@H]2CSSC[C@H](N)C(=O)N[C@H]3CSSC[C@H](NC1=O)C(=O)N[C@@H]([C@@H](C)O)C(=O)NCC(=O)N[C@H](C(=O)N[C@H](Cc1ccc(O)cc1)C(N)=O)CSSC[C@H](NC(=O)[C@H](Cc1ccc(O)cc1)NC(=O)[C@H](CCC(=O)O)NC3=O)C(=O)N2 [[D-Tyr^14]-Linaclotide] (H-CCEYCCNPACTGC[dY]-NH2; disulfide 1-6, 2-10, 5-13) | 16.5 ± 5.8 nM | > 8 h | > 8 h | – | EC50/EC50 linaclotide fold (GC-C receptor): 4.5 fold
3 | Linaclotide-NH2 (peptide) | – | – | – | 7.2 nM | –
4 | [desTyr^14]-Linaclotide-NH2 (peptide) | – | – | – | 33.7 nM | –
5 | [D-Val^14]-Linaclotide (peptide) | – | – | – | 104 nM | –
6 | C[C@@H]1NC(=O)[C@@H]2CCCN2C(=O)[C@H](CC(N)=O)NC(=O)[C@@H]2CSSC[C@H](N)C(=O)N[C@H]3CSSC[C@H](NC1=O)C(=O)N[C@@H]([C@@H](C)O)C(=O)NCC(=O)N[C@H](C(=O)N[C@@H](Cc1ccc(O)cc1)C(N)=O)CSSC[C@H](NC(=O)[C@H](Cc1ccc(O)cc1)NC(=O)[C@H](CCC(=O)O)NC3=O)C(=O)N2 [Linaclotide-NH2] (H-CCEYCCNPACTGCY-NH2; disulfide 1-6, 2-10, 5-13) | 7.2 ± 2.1 nM | > 8 h | > 8 h | – | –
7 | C[C@@H]1NC(=O)[C@@H]2CCCN2C(=O)[C@H](CC(N)=O)NC(=O)[C@@H]2CSSC[C@H](N)C(=O)N[C@H]3CSSC[C@H](NC1=O)C(=O)N[C@@H]([C@@H](C)O)C(=O)NCC(=O)N[C@H](C(=O)N[C@@H](Cc1ccc(O)cc1)C(=O)O)CSSC[C@H](NC(=O)[C@H](Cc1ccc(O)cc1)NC(=O)[C@H](CCC(=O)O)NC3=O)C(=O)N2 [Linaclotide, reference compound] (H-CCEYCCNPACTGCY-OH; disulfide 1-6, 2-10, 5-13 (inferred)) | 3.7 ± 0.5 nM | > 8 h | 0.8 h | – | absorption into the systemic circulation [4]: insignificant; amount excreted in the feces [4]: 3–5%
8 | [Sec^1,6; D-Tyr^14]-Linaclotide (peptide) | – | – | – | 5 nM | –
9 | C[C@@H]1NC(=O)[C@@H]2CCCN2C(=O)[C@H](CC(N)=O)NC(=O)[C@@H]2CSSC[C@@H]3NC(=O)[C@H](Cc4ccc(O)cc4)NC(=O)[C@@H]4CSSC[C@H](NC(=O)[C@H](Cc5ccc(O)cc5)NC(=O)[C@H](CCC(=O)O)NC(=O)[C@H](CSSC[C@H](NC1=O)C(=O)N[C@@H]([C@@H](C)O)C(=O)NCC(=O)N4)NC3=O)C(=O)N2 [[cyclic]-Linaclotide] (cyclo(ACTGCYCCEYCCNP); disulfide 2-8, 5-11, 7-12) | 2990 ± 929 nM | > 8 h | > 8 h | – | EC50/EC50 linaclotide fold (GC-C receptor): 808 fold and ~800 fold
10 | [D-Tyr^14]-Linaclotide (peptide) | – | – | – | 16.5 nM | –
11 | Linaclotide (peptide) | – | – | – | 3.7 nM | –
12 | C[C@@H]1NC(=O)[C@@H]2CCCN2C(=O)[C@H](CC(N)=O)NC(=O)[C@@H]2CSSC[C@H](N)C(=O)N[C@H]3CSSC[C@H](NC1=O)C(=O)N[C@@H]([C@@H](C)O)C(=O)NCC(=O)N[C@H](C(N)=O)CSSC[C@H](NC(=O)[C@H](Cc1ccc(O)cc1)NC(=O)[C@H](CCC(=O)O)NC3=O)C(=O)N2 [[desTyr^14]-Linaclotide-NH2] (H-CCEYCCNPACTGC-NH2; disulfide 1-6, 2-10, 5-13) | 33.7 ± 5.7 nM | > 8 h | > 8 h | – | –
13 | [cyclic]-Linaclotide (peptide) | – | – | – | 2990 nM | –
